Experimental data reported in patent publication US12441733B2, “Substituted 2,4-dioxotetrahydropyrimidines as intermediates in the synthesis of bruton's tyrosine kinase inhibitors” (Novartis AG, priority 2018, dated 2025).

Experiments:
Format in all cases: cell-based
TMD8 cells = test: Resazurin cell viability (proliferation) assay in TMD8 DLBCL cells; settings: Homo sapiens, TMD8 cells (BTK dependent), 72 h, 50% growth inhibition vs vehicle, read-out: TMD8 Prol GI50
Method: (§1) Compounds of the invention were tested in the following cellular assays. The terms in Table 2 are defined as follows: DC50 refers to the concentration at which 50% maximal degradation was observed; deg Amax is the extent of degradation and the value refers to the % protein remaining at the concentration at which maximum degradation is seen; ProI GI50 refers to the proliferation data and defines the concentration at which 50% growth inhibition was observed compared to the vehicle treated control at the end of the incubation time. TMD8 cells are BTK dependent and OCI-LY3 cells are BTK independent.
(§2) Cell Viability Assay in DLBCL (Diffuse Large B-Cell Lymphoma) Cells:
(§3) The effect of the BTK compounds on cell proliferation was measured by a Resazurin (Sigma, #R7017) based cell viability assay. TMD8 (BTK compound sensitive) and OCI-LY3 (BTK compound insensitive) cells were incubated for 72 h at 37° C. and 5% CO2 with the corresponding compound, Resazurin is a non-toxic, cell-permeable substrate that is virtually non-fluorescent. Upon entering living cells, Resazurin (Sigma, #R7017) is reduced to highly fluorescent Resorufin. The metabolic activity was assessed by measuring the fluorescence signal (ex. 530 nm; em. 600 nm).
(§4) TMD8 and OCI-Ly3 cells were seeded at day 0 in triplicates at a cell density of 1×10^4 cells per 150 μl/well in a 96-well plate (Costar #3904). Additional plates were prepared, in order to assess the basal metabolic activity of both cell lines at the beginning of the experiment. For these reference plates, Resazurin (Sigma, #R7017) was added to a final concentration of 13 μg/ml 3 h post seeding and was incubated for 2 h at 37° C. and 5% CO2. Following incubation, the fluorescent signal intensity of the 96-well plates was measured on a Mithras LB940 multimode plate reader at 530/600 nm (Berthold Technologies, Germanyl).
(§5) In parallel, 3 h post-seeding, test-plates were treated with compound at various concentrations, or with vehicle (DMSO) alone for 3 days. The compound addition to the plates was performed by using a HP D300 digital dispenser (TECAN, Switzerland). The compounds were tested in triplicate, 8-point serial dilution (1:4), with a start concentration of 10 μM for OCI-LY3 and 1 μM for the TMD8 cells, respectively. To assess the relative proliferation of the cells, Resazurin was added to each well directly to the medium to a final concentration of 13 μg/ml. The plates were incubated for 2 h at 37° C. and 5% CO2 to result in a 72 h endpoint. Following incubation, the fluorescent signal intensity of the 96-well plates were measured on a Mithras LB940 multimode plate reader at 530/600 nm (Berthold Technologies, Germanyl). The formation of Resorufin dye directly correlates with the number of metabolically active cells. For each triplicate treatment the mean and standard deviation were calculated and analyzed via curve fitting software to determine the respective compound concentration resulting in 50% growth inhibition (GI50) values. For each compound GI50 values were typically determined from at least 2 entirely independent experiments.
TMD8 cells were acquired through a license agreement with Tokyo Medical and Dental University, Japan. Cells are cultivated in MEM Alpha (BioConcept, #1-23F01-1, lot. LB04262P) supplemented with 10% FCS (HyClone, GE #SH30066.03, lot AB3217603), 2 mM L-Glutamine (BioConcept, #5-10K50-H, lot. LA03467P), 1% Pen/Strep (BioConcept, #4-01F00-H, lot. LB04235P).

BTK-GFP = molecular target: T1, BTK-GFP (Homo sapiens, UniProt Q06187+Q96SW2); test: BTK-GFP protein abundance flow cytometry assay in HEK293A cells; settings: HEK293A BTK-GFP-iresRFP cells, 24 h; for DC50: GFP signal by flow cytometry, concentration at which 50% maximal degradation was observed; for BTK deg Amax: % protein remaining at the concentration at which maximum degradation is seen
T1 construct: expressed in transfected cells; host or cells: HEK293A (Invitrogen R70507), lentiviral transduction with pLenti6-BTK-GFP-Ires-RFP, blasticidin selection
Method: as §1
BTK-GFP and IKZF3-GFP protein abundance flow cytometry assay in HEK293A cells:
Degradation of BTK or IKZF3 was measured in HEK293A cells (Invitrogen R70507) expressing either BTK-GFP and RFP or IKZF3-GFP and RFP from a stably integrated bicistronic BTK-GFP-iresRFP or IKZF3-GFP-iresRFP construct, respectively. Reduction of the GFP signal measured by flow cytometry served as readout for BTK or IKZF3 degradation after degrader treatment.
i) Cloning of the pLenti6-BTK-GFP-1Res-RFP and IKZF3-GFP-Ires-RFP Sensor Vectors
The bicistronic BTK-GFP-iresRFP construct is based on a pLenti6-DEST vector backbone where GFP was introduced into the unique Xho1 site downstream of the destination cassette (DEST) and RFP was cloned behind an internal ribosomal entry site (Ires).
In detail, the sensor construct was engineered by replacing NanoLuciferase (NLuc) by GFP and FireFly luciferase (FF) by RFP from pLenti6-DEST-NLuc-Ires-FF.
The pLenti6-DEST-NLuc-Ires-FF sensor construct was cloned by replacing eGFP from pLenti6-DEST-ires-eGFP with a synthesized stuffer element (encoding Ires-FF with FF flanked by two Nhe1 restriction sites) using blunt end cloning replacing Ires-eGFP between the two PmII. To enable C-terminal tagging with NanoLuciferase (NLuc), NLuc was amplified from pNL1.1 (Promega #N1001) using linker primers with Xho1 sites for ligating into linearized pLenti6-DEST-Ires-FF using Xho1 digest resulting in the construct pLenti6-DEST-NLuc-Ires-FF.
The pLenti6-DEST-NLuc-Ires-FF served as base vector for cloning pLenti6-DEST-GFP-Ires-RFP using Gibson assembly to replace FF with RFP and NLuc with GFP. In a first round FF was replaced by RFP by amplifying RFP from a template using the following Gibson assembly linker primers (Gibson-Nhe1 RFPfw, […]gctagc[…] (SEQ ID NO: 1); Gibson-Nhe1 RFP-Stoprev, […]ctagc[…] (SEQ ID NO: 2)) to clone into pLenti6-DEST-NLuc-Ires-FF digested with Nhe1 and gel-purified to remove the FF fragment. The resulting pLenti6-DEST-NLuc-Ires-RFP vector served as the template to replace NLuc with GFP by amplifying GFP from a template using following Gibson assembly linker primers (Gibson-Xho1 GFPfw, […]c[…] (SEQ ID NO: 3); Gibson-Xho1 GFP-Stoprev, […] (SEQ ID NO: 4)) to clone into pLenti6-DEST-NLuc-Ires-RFP digested with Xho1 and gel-purified to remove the NLuc fragment. All Gibson assembly reactions were performed with Gibson assembly Master Mix (New England Biolabs NEB E261 IL) according to manufacturer's manual, resulting in the destination vector pLenti6-DEST-GFP-Ires-RFP to allow Gateway cloning. To enable gateway cloning and C-terminal GFP tagging of BTK, the BTK open reading frame (ORF) was first shuttled from a pcDNA-DEST40-BTK vector (Invitrogen library ID INV_20090504v1) into pDONR221 (Invitrogen 12536-017) vector using a gateway BP reaction according to the manufacturer's manual (Invitrogen 11789-013) resulting in the novel construct pENTR221-BTK. For C-terminal tagging the STOP codon was mutated to a leucine performing a mutagenesis reaction with the following primers (pENTR221-BTK Quikchange STOP-Leu fw, gtcatggatgaagaatccTTGaacccagctttcttgtac; pENTR221-BTK Quikchange STOP-Leu REVC, gtacaagaaagctgggttCAAggattcttcatccatgac) using the QuikChange Lightning mutagenesis kit (Agilent Technologies #210518) according to the manufacturer's manual, resulting in pENTR221-BTK (STOP-Leu). […]

OCI-LY3 cells = test: Resazurin cell viability (proliferation) assay in OCI-LY3 DLBCL cells; settings: Homo sapiens, OCI-LY3 cells (BTK independent), 72 h, 50% growth inhibition vs vehicle, read-out: OCI-LY3 Prol GI50
Method: as §1, §2, §3, §4, §5
OCI-LY3 cells were acquired through a license agreement with University Health Network, Toronto, Canada. Cells are cultivated in RPM11640 media (Gibco, #61870-010, lot. 1894759), supplemented with 10% FCS (HyClone, GE #SH30066.03, lot AB217603), 2 mM L-Glutamine (BioConcept, #5-10K50-H, lot. LA03467P), 1 mM Sodium Pyruvate (BioConcept, #5-60F00-H, lot. LB10510P), 10 mM HEPES (Gibco, #15630-056, lot. 1854074), 1% Pen/Strep (BioConcept, #4-01F00-H, lot. LB04235P).

T1 sequence (Q06187 whole entry): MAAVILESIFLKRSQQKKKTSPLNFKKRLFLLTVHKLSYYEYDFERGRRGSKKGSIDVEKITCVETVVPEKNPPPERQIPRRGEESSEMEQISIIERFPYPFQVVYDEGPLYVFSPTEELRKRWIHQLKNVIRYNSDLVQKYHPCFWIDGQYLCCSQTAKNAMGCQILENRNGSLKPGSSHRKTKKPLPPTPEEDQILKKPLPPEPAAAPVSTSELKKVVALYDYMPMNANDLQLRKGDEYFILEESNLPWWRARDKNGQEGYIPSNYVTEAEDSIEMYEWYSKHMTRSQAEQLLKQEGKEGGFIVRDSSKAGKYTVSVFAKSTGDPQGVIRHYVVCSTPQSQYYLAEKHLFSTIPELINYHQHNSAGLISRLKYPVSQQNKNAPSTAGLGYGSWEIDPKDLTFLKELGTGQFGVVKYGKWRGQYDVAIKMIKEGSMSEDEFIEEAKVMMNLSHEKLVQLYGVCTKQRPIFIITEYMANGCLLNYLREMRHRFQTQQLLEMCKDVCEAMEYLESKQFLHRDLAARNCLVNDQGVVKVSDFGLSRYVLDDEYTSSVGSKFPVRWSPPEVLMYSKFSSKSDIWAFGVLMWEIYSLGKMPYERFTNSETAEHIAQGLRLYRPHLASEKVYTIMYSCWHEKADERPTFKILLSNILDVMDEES
T1 sequence (Q96SW2 whole entry): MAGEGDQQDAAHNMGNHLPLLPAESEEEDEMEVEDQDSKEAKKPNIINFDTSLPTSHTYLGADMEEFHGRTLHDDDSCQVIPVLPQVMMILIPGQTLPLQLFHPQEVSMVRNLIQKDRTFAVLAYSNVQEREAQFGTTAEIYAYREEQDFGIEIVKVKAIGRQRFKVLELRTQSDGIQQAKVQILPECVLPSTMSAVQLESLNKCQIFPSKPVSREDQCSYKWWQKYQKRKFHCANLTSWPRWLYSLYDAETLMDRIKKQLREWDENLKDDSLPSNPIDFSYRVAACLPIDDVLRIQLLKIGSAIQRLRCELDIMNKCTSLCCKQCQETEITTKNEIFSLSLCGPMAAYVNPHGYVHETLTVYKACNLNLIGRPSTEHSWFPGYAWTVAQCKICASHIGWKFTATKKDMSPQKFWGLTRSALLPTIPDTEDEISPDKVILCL
T1 sequence (Q16531 whole entry partner): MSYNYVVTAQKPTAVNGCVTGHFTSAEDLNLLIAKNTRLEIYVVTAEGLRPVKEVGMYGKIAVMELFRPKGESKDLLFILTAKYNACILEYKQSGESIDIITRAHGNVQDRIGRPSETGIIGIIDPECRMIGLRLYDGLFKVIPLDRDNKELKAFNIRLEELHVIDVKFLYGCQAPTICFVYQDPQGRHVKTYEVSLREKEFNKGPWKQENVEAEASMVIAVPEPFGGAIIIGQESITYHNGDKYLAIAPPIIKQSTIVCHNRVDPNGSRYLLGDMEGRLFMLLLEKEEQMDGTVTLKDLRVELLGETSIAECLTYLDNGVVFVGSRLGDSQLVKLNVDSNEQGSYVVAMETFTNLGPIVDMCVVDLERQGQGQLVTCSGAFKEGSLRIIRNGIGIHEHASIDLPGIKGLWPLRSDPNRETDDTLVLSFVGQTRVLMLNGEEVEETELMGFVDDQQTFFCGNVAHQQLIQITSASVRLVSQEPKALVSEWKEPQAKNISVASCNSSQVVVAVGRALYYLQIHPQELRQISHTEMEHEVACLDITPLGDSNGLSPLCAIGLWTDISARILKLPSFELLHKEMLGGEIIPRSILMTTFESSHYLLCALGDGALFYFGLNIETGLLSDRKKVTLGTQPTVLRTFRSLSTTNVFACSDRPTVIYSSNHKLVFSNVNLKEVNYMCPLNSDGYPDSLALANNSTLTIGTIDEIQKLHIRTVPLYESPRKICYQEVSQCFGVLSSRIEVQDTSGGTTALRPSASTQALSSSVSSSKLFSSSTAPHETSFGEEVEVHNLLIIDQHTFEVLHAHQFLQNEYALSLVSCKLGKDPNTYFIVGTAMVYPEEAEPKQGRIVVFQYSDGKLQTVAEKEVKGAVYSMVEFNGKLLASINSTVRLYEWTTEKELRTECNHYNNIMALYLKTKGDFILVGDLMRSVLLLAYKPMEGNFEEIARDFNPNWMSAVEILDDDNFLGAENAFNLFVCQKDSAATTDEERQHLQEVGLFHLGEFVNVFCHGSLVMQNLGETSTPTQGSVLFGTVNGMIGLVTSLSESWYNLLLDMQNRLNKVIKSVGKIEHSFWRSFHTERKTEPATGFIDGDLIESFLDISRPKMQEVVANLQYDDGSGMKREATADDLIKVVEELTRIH

Row | SMILES | DC50 (BTK-GFP) | BTK deg Amax (BTK-GFP) | GI50 (OCI-LY3 cells) | GI50 (TMD8 cells)
1 | COc1ccc(C(=O)N2CCC3(CCN(Cc4ccc(-c5cc6c(-c7cc(F)cc(NC(=O)c8ccc(C(C)(C)O)cc8F)c7C)ncnc6[nH]5)cc4)C3)CC2)cc1N1CCC(=O)NC1=O [Compound 49, N-(3-(6-(4-((8-(3-(2,4-dioxotetrahydropyrimidin-1(2H)-yl)-4-methoxybenzoyl)-2,8-diazaspiro[4.5]decan-2-yl)methyl)phenyl)-7H-pyrrolo[2,3-d]pyrimidin-4-yl)-5-fluoro-2-methylphenyl)-2-fluoro-4-(2-hydroxypropan-2-yl)benzamide] | 70.3 nM | 49.4% | 4840 nM | 5.35 nM
2 | Cc1c(NC(=O)c2ccc(C(C)(C)O)cc2F)cc(F)cc1-c1ncnc2[nH]c(-c3ccc(CNCCCCCN(C)C(=O)c4ccc(Cl)c(N5CCC(=O)NC5=O)c4)cc3)cc12 [Compound 42, 4-chloro-3-(2,4-dioxotetrahydropyrimidin-1(2H)-yl)-N-(5-((4-(4-(5-fluoro-3-(2-fluoro-4-(2-hydroxypropan-2-yl)benzamido)-2-methylphenyl)-7H-pyrrolo[2,3-d]pyrimidin-6-yl)benzyl)amino)pentyl)-N-methylbenzamide] | 59.5 nM | 8.8% | 8920 nM | 5.34 nM
3 | COc1ccc(C(=O)NCCN2CCC3(CC2)CCN(Cc2ccc(-c4cc5c(-c6cc(F)cc(NC(=O)c7ccc(C(C)(C)O)cc7F)c6C)ncnc5[nH]4)cc2)C3)cc1N1CCC(=O)NC1=O [Compound 35, N-(3-(6-(4-((8-(2-(3-(2,4-Dioxotetrahydropyrimidin-1(2H)-yl)-4-methoxybenzamido)ethyl)-2,8-diazaspiro[4.5]decan-2-yl)methyl)phenyl)-7H-pyrrolo[2,3-d]pyrimidin-4-yl)-5-fluoro-2-methylphenyl)-2-fluoro-4-(2-hydroxypropan-2-yl)benzamide] | 61.1 nM | 7.6% | 9160 nM | 3.46 nM

The next compounds have a lower DC50 (BTK-GFP) than those just listed; values first:

Row | DC50 (BTK-GFP) | BTK deg Amax (BTK-GFP) | GI50 (OCI-LY3 cells) | SMILES | GI50 (TMD8 cells)
4 | 19.1 nM | 3.6% | > 10000 nM | COc1ccc(C(=O)N2CCC3(CCN(Cc4ccc(-c5cc6c(-c7cc(F)cc(NC(=O)c8ccc(C(C)(C)O)cc8F)c7C)ncnc6[nH]5)cc4)CC3)[C@H](CO)C2)cc1N1CCC(=O)NC1=O (single isomer, unassigned) [Compound 3] | 2.24 nM
5 | 2.3 nM | 11.0% | 4140 nM | COc1ccc(C(=O)N2CCC(CCN3CCN(Cc4ccc(-c5cc6c(-c7cc(F)cc(NC(=O)c8ccc(C(C)(C)O)cc8F)c7C)ncnc6[nH]5)cc4)CC3)CC2)cc1N1CCC(=O)NC1=O [Compound 17, N-(3-(6-(4-((4-(2-(1-(3-(2,4-Dioxotetrahydropyrimidin-1(2H)-yl)-4-methoxybenzoyl)piperidin-4-yl)ethyl)piperazin-1-yl)methyl)phenyl)-7H-pyrrolo[2,3-d]pyrimidin-4-yl)-5-fluoro-2-methylphenyl)-2-fluoro-4-(2-hydroxypropan-2-yl)benzamide] | 0.5 nM
6 | 1 nM | 2.3% | 3340 nM | COc1ccc(C(=O)N2CCC(CCN3CCC(COc4ccc(-c5cc6c(-c7cc(F)cc(NC(=O)c8ccc(C(C)(C)O)cc8F)c7C)ncnc6[nH]5)cc4)CC3)CC2)cc1N1CCC(=O)NC1=O [Compound 43, N-(3-(6-(4-((1-(2-(1-(3-(2,4-dioxotetrahydropyrimidin-1(2H)-yl)-4-methoxybenzoyl)piperidin-4-yl)ethyl)piperidin-4-yl)methoxy)phenyl)-7H-pyrrolo[2,3-d]pyrimidin-4-yl)-5-fluoro-2-methylphenyl)-2-fluoro-4-(2-hydroxypropan-2-yl)benzamide] | 0.68 nM
7 | 0.8 nM | 1.8% | 3390 nM | COc1ccc(C(=O)N2CCC(CCN3CCC(OCc4ccc(-c5cc6c(-c7cc(F)cc(NC(=O)c8ccc(C(C)(C)O)cc8F)c7C)ncnc6[nH]5)cc4)CC3)CC2)cc1N1CCC(=O)NC1=O [Compound 13, N-(3-(6-(4-(((1-(2-(1-(3-(2,4-Dioxotetrahydropyrimidin-1(2H)-yl)-4-methoxybenzoyl)piperidin-4-yl)ethyl)piperidin-4-yl)oxyl)methyl)phenyl)-7H-pyrrolo[2,3-d]pyrimidin-4-yl)-5-fluoro-2-methylphenyl)-2-fluoro-4-(2-hydroxypropan-2-yl)benzamide] | 0.18 nM
